Tests used:
[1] = Human cadaver skin permeability assay, Franz diffusion cells (flux, Papp)
Description: Static, vertical glass Franz diffusion cells were used for the permeability assay.
The dosing solution with control compounds (atenolol and testosterone, 100 μM each) was prepared in PBS buffer at pH 7.4 immediately prior to the start of the permeability experiments. The skin was kept frozen at −80° C. until the time of the study. The skin was thawed at room temperature and cut to appropriate size (˜2×2 cm). The thickness of each piece was measured and they were grouped based on thickness to ensure that the average thickness was similar across groups. Tissue was mounted in the Franz cell diffusion chamber and clamped between the donor and receiver chambers. The exposed surface area of the Franz cell diffusion chamber was 1.77 cm^2. The receiver compartment was filled with 8 mL PBS at pH 7.4 with 1% Oleth 20 for all test groups, or PBS at pH 7.4 for the control group. The reservoir also contained a magnetic stir bar, stirring at 400 RPM to ensure homogeneity of the reservoir contents. […]
Each formulated test compound (35.4 μL by volume) was dispensed into the donor chamber using the reverse pipetting technique, after warming the cream in a water bath at 37° C. […] Each formulation was also analyzed to verify the concentration of the test compound. […]

[2] = Accumulation in epidermis and dermis of human skin after permeability assay; assay type: in vitro ADME
Text: All chambers were covered to minimize evaporation.
The concentration of the test compounds is expressed as the amount (μg) normalized by the tissue weight of each layer (g).

[3] = Solubility in common topical excipients and solvent mixtures; assay type: physicochemical
[4] = Stress testing with pure excipients (adduct formation); assay type: physicochemical
Description: Stress testing with pure excipients was also conducted.

[5] = Solubility in IPA/DMSO and IPA/water/DMSO solutions; assay type: physicochemical

Question: For C[C@]12CC[C@H]3[C@@H](CCC4=CC(=O)CC[C@@]43C)[C@@H]1CC[C@@H]2O [testosterone], which “ratio of testosterone to atenolol Papp” value ([1]; control compounds, 100 μM each in PBS pH 7.4) is on record?
Answer: greater than 2

Question: What does the source list for Cc1c(C(=O)Nc2ccc(N3C[C@@H](C)O[C@@H](C)C3)nc2)cccc1-c1ccc(OC(F)(F)F)cc1 [LDE225]?
Answer: accumulation in dermis, comparison [2]: significantly less; accumulation in epidermis, comparison [2]: significantly less; flux, comparison between formulations ([1]; human cadaver skin): tended to be lower than that of Formulation A2

Question: For CN(C(=O)c1ccc(F)cc1C(F)(F)F)C1CCN(c2nnc(-c3ccnn3C)c3ccccc23)CC1 [4-fluoro-N-methyl-N-(1-(4-(1-methyl-1H-pyrazol-5-yl)phthalazin-1-yl)piperidin-4-yl)-2-(trifluoromethyl)benzamide], which “Solubility in cosolvent, aqueous and lipophilic mixtures” value ([3]; Table 2 (not given)) is on record?
Answer: solubility is highest in ethanol/water mixtures

Question: What about the Solubility ([3]; solvent DMSO) of the same compound?
Answer: 27.65 mg/g

Question: What about the Solubility ([3]; solvent EtOH) of the same compound?
Answer: 13.66 mg/g

Question: What about the Solubility ([3]; solvent EtOH-Water (1:1) v/v) of the same compound?
Answer: 2.51 mg/g

Question: What about the Solubility ([3]; solvent EtOH-Water (3:1) v/v) of the same compound?
Answer: 18.76 mg/g

Question: And the Solubility ([3]; solvent IPA-Water (3:1) v/v)?
Answer: 18.73 mg/g

Question: What about the Solubility ([3]; solvent Isopropyl alcohol) of the same compound?
Answer: 5.15 mg/g

Question: What about the Solubility ([3]; solvent NMP) of the same compound?
Answer: 107.02 mg/g

Question: What about the adduct formation ([4]; excipients containing unhindered hydroxyl groups (ethanol, benzyl alcohol, Transcutol)) of the same compound?
Answer: Adducts were observed

Question: And the adduct formation ([4]; isopropyl alcohol)?
Answer: no adduct was observed

Question: What about the “solubility in IPA/DMSO solutions” value ([5]; above 20% DMSO, increasing DMSO, absence of water) of the same compound?
Answer: increased

Question: And the “solubility in IPA/water/DMSO solutions” value ([5]; as percentage of water increased (5%, 10%, 20% or 30% water))?
Answer: less solubility

Reference: US20180256570A1, “TOPICAL FORMULATIONS” (IGNYTA, INC., priority 2015, published 2018)
